# Source: ChEMBL document CHEMBL1201861, “Genomics of Drug Sensitity in Cancer screening data, Wellcome Trust Sanger Institute”
# Columns and labels:
# CHP-212 = experiment: cells; type: functional, cell-based; conditions: Homo sapiens
# Description: SANGER: Inhibition of human CHP-212 cell growth in a cell viability assay.
# A204 = experiment: cells; type: functional, cell-based; conditions: Homo sapiens;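 further: growth inhibition of human A204 cells, read out with a cell viability assay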
# Description: SANGER: Inhibition of human A204 cell growth in a cell viability assay.
# SCC-25 = experiment: cells; type: functional, cell-based; conditions: Homo sapiens;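 further: growth inhibition of SCC-25 cells, measured with a cell viability assay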
# Description: SANGER: Inhibition of human SCC-25 cell growth in a cell viability assay.
# CAKI-1 = experiment: cells; type: functional, cell-based; conditions: Homo sapiens;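 further: growth inhibition of CAKI-1 cells, measured by a cell viability assay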
# Description: SANGER: Inhibition of human CAKI-1 cell growth in a cell viability assay.
# VM-CUB-1 = experiment: cells; type: functional, cell-based; conditions: Homo sapiens;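 further: cell viability assay measuring growth inhibition of the human VM-CUB-1 cell line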
# Description: SANGER: Inhibition of human VM-CUB-1 cell growth in a cell viability assay.
# BHT-101 = experiment: cells; type: functional, cell-based; conditions: Homo sapiens
# Description: SANGER: Inhibition of human BHT-101 cell growth in a cell viability assay.
# SW780 = experiment: cells; type: functional, cell-based; conditions: Homo sapiens;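 further: growth inhibition of the cells, read out with a cell viability assay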
# Description: SANGER: Inhibition of human SW780 cell growth in a cell viability assay.
# RPMI-6666 = experiment: cells; type: functional, cell-based, Homo sapiens; conditions: Homo sapiens, RPMI-6666
# Description: SANGER: Inhibition of human RPMI-6666 cell growth in a cell viability assay.
# EFM-19 = experiment: cells; type: functional, cell-based; conditions: Homo sapiens;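 further: growth inhibition of human EFM-19 cells, measured in a cell viability assay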
# Description: SANGER: Inhibition of human EFM-19 cell growth in a cell viability assay.
# TALL-1 = experiment: cells; type: functional, cell-based, Homo sapiens; conditions: Homo sapiens, TALL-1;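 further: growth inhibition of cultured human TALL-1 cells, read out by a cell viability assay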
# Description: SANGER: Inhibition of human TALL-1 cell growth in a cell viability assay.
# CPC-N = experiment: cells; type: functional, cell-based, Homo sapiens; conditions: Homo sapiens, CPC-N;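 further: growth inhibition of CPC-N cells, with a cell viability assay as the readout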
# Description: SANGER: Inhibition of human CPC-N cell growth in a cell viability assay.
# NCI-H748 = experiment: cells; type: functional, cell-based, Homo sapiens; conditions: Homo sapiens, NCI-H748;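 further: growth inhibition of NCI-H748 cells, measured by a cell viability assay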
# Description: SANGER: Inhibition of human NCI-H748 cell growth in a cell viability assay.
# NCI-H2030 = experiment: cells; type: functional, cell-based; conditions: Homo sapiens;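 further: growth inhibition of human NCI-H2030 cells, read out by a cell viability assay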
# Description: SANGER: Inhibition of human NCI-H2030 cell growth in a cell viability assay.
# 8505C = experiment: cells; type: functional, cell-based; conditions: Homo sapiens
# Description: SANGER: Inhibition of human 8505C cell growth in a cell viability assay.
# NUGC-3 = experiment: cells; type: functional, cell-based; conditions: Homo sapiens;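 further: growth inhibition of human NUGC-3 cells, read out with a cell viability assay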
# Description: SANGER: Inhibition of human NUGC-3 cell growth in a cell viability assay.
# JIYOYE = experiment: cells; type: functional, cell-based, Homo sapiens; conditions: Homo sapiens, JIYOYE
# Description: SANGER: Inhibition of human JiyoyeP-2003 cell growth in a cell viability assay.
# SUP-T1 = experiment: cells; type: functional, cell-based, Homo sapiens; conditions: Homo sapiens, SUP-T1;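 further: growth inhibition of human SUP-T1 cells, read out as cell viability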
# Description: SANGER: Inhibition of human SUP-T1 cell growth in a cell viability assay.
# LCLC-97TM1 = experiment: cells; type: functional, cell-based; conditions: Homo sapiens;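 further: cell viability assay measuring growth inhibition of human LCLC-97TM1 cells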
# Description: SANGER: Inhibition of human LCLC-97TM1 cell growth in a cell viability assay.
# EFO-21 = experiment: cells; type: functional, cell-based; conditions: Homo sapiens;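 further: growth inhibition of EFO-21 cells measured with a viability assay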
# Description: SANGER: Inhibition of human EFO-21 cell growth in a cell viability assay.
# MC-CAR = experiment: cells; type: functional, cell-based, Homo sapiens; conditions: Homo sapiens, MC-CAR;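 further: growth inhibition of the human MC-CAR cell line, read out by a cell viability assay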
# Description: SANGER: Inhibition of human MC-CAR cell growth in a cell viability assay.
# S-117 = experiment: cells; type: functional, cell-based; conditions: Homo sapiens
# Description: SANGER: Inhibition of human S-117 cell growth in a cell viability assay.
# HuTu80 = experiment: cells; type: functional, cell-based, Homo sapiens, HUTU-80; conditions: Homo sapiens, HuTu80;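 further: growth inhibition of HuTu80 human cells, determined with a cell viability readout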
# Description: SANGER: Inhibition of human HUTU-80 cell growth in a cell viability assay.
# KYSE-70 cell line = experiment: cells; type: functional, cell-based; conditions: Homo sapiens;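 further: cell viability assay read-out, with IC50 expressing suppression of KYSE-70 cell growth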
# Description: SANGER: Inhibition of human KYSE-70 cell growth in a cell viability assay.
# NCI-H2342 = experiment: cells; type: functional, cell-based; conditions: Homo sapiens;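 further: growth inhibition of the cancer cell line, determined with a cell viability assay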
# Description: SANGER: Inhibition of human NCI-H2342 cell growth in a cell viability assay.
# NCI-H2087 = experiment: cells; type: functional, cell-based; conditions: Homo sapiens;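 further: growth inhibition determined with a cell viability readout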
# Description: SANGER: Inhibition of human NCI-H2087 cell growth in a cell viability assay.
# HCT-116 = experiment: cells; type: functional, cell-based; conditions: Homo sapiens
# Description: SANGER: Inhibition of human HCT-116 cell growth in a cell viability assay.
# NCI-H292 = experiment: cells; type: functional, cell-based; conditions: Homo sapiens;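 further: growth inhibition of NCI-H292 cells, read out with a cell viability assay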
# Description: SANGER: Inhibition of human NCI-H292 cell growth in a cell viability assay.
# SW1990 = experiment: cells; type: functional, cell-based; conditions: Homo sapiens
# Description: SANGER: Inhibition of human SW1990 cell growth in a cell viability assay.
# HuCCT-1 = experiment: cells; type: functional, cell-based, HuCCT1; conditions: Homo sapiens;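 further: growth inhibition of HuCCT-1 cells, read out by a cell viability assay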
# Description: SANGER: Inhibition of human HuCCT1 cell growth in a cell viability assay.
# DMS-273 = experiment: cells; type: functional, cell-based; conditions: Homo sapiens
# Description: SANGER: Inhibition of human DMS-273 cell growth in a cell viability assay.
# NCI-H1755 = experiment: cells; type: functional, cell-based; conditions: Homo sapiens;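 further: cell viability readout used to measure growth inhibition of NCI-H1755 cells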
# Description: SANGER: Inhibition of human NCI-H1755 cell growth in a cell viability assay.
# NCI-H2196 = experiment: cells; type: functional, cell-based, Homo sapiens; conditions: Homo sapiens, NCI-H2196; read-out: IC50;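 further: cell viability assay used as the readout of growth inhibition in NCI-H2196 cells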
# Description: SANGER: Inhibition of human NCI-H2196 cell growth in a cell viability assay.
# DoTc2-4510 = experiment: cells; type: functional, cell-based; conditions: Homo sapiens
# EFO-27 = experiment: cells; type: functional, cell-based; conditions: Homo sapiens;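 further: growth inhibition of EFO-27 cells, read out with a cell viability assay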
# Description: SANGER: Inhibition of human EFO-27 cell growth in a cell viability assay.
# HuO-3N1 = experiment: cells; type: functional, cell-based; conditions: Homo sapiens;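 further: cell viability readout used to measure how strongly compounds suppress proliferation of human HuO-3N1 cells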
# Description: SANGER: Inhibition of human HuO-3N1 cell growth in a cell viability assay.
# HSC-4 = experiment: cells; type: functional, cell-based; conditions: Homo sapiens;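 further: growth inhibition of human HSC-4 cells, read out with a cell viability assay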
# Description: SANGER: Inhibition of human HSC-4 cell growth in a cell viability assay.
# GCT = experiment: cells; type: functional, cell-based; conditions: Homo sapiens;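 further: GCT cell line proliferation inhibition, read out with a cell viability assay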
# Description: SANGER: Inhibition of human GCT cell growth in a cell viability assay.
# EW-24 = experiment: cells; type: functional, cell-based, Homo sapiens; conditions: Homo sapiens, EW-24;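 further: human EW-24 cancer cell line, growth inhibition read out via a cell viability assay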
# Description: SANGER: Inhibition of human EW-24 cell growth in a cell viability assay.
# SNU-387 = experiment: cells; type: functional, cell-based; conditions: Homo sapiens
# Description: SANGER: Inhibition of human SNU-387 cell growth in a cell viability assay.
# G-402 = experiment: cells; type: functional, cell-based; conditions: Homo sapiens
# Description: SANGER: Inhibition of human G-402 cell growth in a cell viability assay.
# HT-29 = experiment: cells; type: functional, cell-based; conditions: Homo sapiens;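 further: growth inhibition of human HT-29 cells, read out by a cell viability assay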
# Description: SANGER: Inhibition of human HT-29 cell growth in a cell viability assay.
# IM-9 = experiment: SANGER: Inhibition of human IM-9 cell growth in a cell viability assay.; type: functional, cell-based; conditions: Homo sapiens, IM-9
# P31-FUJ = experiment: cells; type: functional, cell-based, Homo sapiens; conditions: Homo sapiens, P31-FUJ;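 further: growth inhibition of P31-FUJ cells, read out with a viability assay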
# Description: SANGER: Inhibition of human P31-FUJ cell growth in a cell viability assay.
# UMC-11 = experiment: cells; type: functional, cell-based; conditions: Homo sapiens;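 further: growth inhibition of UMC-11 cells, read out with a cell viability assay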
# Description: SANGER: Inhibition of human UMC-11 cell growth in a cell viability assay.
# NALM-6 = experiment: cells; type: functional, cell-based, Homo sapiens; conditions: Homo sapiens, NALM-6;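 further: growth inhibition of NALM-6 cells, read out with a cell viability assay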
# Description: SANGER: Inhibition of human NALM-6 cell growth in a cell viability assay.
# D-392MG = experiment: cells; type: functional, cell-based; conditions: Homo sapiens
# KYSE-410 = experiment: cells; type: functional, cell-based; conditions: Homo sapiens;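 further: growth inhibition of KYSE-410 cells, measured through a cell viability readout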
# Description: SANGER: Inhibition of human KYSE-410 cell growth in a cell viability assay.
# HMV-2 cell line = experiment: cells; type: functional, cell-based; conditions: Homo sapiens;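 further: growth inhibition of HMV-II cells, read out with a cell viability assay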
# Description: SANGER: Inhibition of human HMV-II cell growth in a cell viability assay.
# MFE-280 = experiment: cells; type: functional, cell-based; conditions: Homo sapiens;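 further: growth inhibition of MFE-280 cells, determined with a cell viability readout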
# Description: SANGER: Inhibition of human MFE-280 cell growth in a cell viability assay.
# RD = experiment: cells; type: functional, cell-based; conditions: Homo sapiens
# Description: SANGER: Inhibition of human RD cell growth in a cell viability assay.
# A-427 = experiment: cells; type: functional, cell-based; conditions: Homo sapiens;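 further: growth inhibition of human A-427 cells, read out by a cell viability assay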
# Description: SANGER: Inhibition of human A427 cell growth in a cell viability assay.
# NCI-H2405 = experiment: cells; type: functional, cell-based; conditions: Homo sapiens;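 further: growth inhibition of the human cell line, read out with a cell viability assay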
# Description: SANGER: Inhibition of human NCI-H2405 cell growth in a cell viability assay.
# SW48 = experiment: cells; type: functional, cell-based; conditions: Homo sapiens;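 further: growth inhibition of SW48 cells, read out with a cell viability assay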
# Description: SANGER: Inhibition of human SW48 cell growth in a cell viability assay.
# COR-L105 = experiment: cells; type: functional, cell-based; conditions: Homo sapiens
# Description: SANGER: Inhibition of human COR-L105 cell growth in a cell viability assay.
# NCCIT = experiment: SANGER: Inhibition of human NCCIT cell growth in a cell viability assay.; type: functional, cell-based; conditions: Homo sapiens, NCCIT
# T98G = experiment: cells; type: functional, cell-based; conditions: Homo sapiens;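 further: growth inhibition of T98G cells, read out by a cell viability assay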
# Description: SANGER: Inhibition of human T98G cell growth in a cell viability assay.
# NCI-H2081 = experiment: cells; type: functional, cell-based, Homo sapiens; conditions: Homo sapiens, NCI-H2081;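 further: growth inhibition of human NCI-H2081 cells, read out with a cell viability assay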
# Description: SANGER: Inhibition of human NCI-H2081 cell growth in a cell viability assay.
compound,measurement,setting,value
Cc1ccc(C(=O)Nc2ccc(CN3CCN(C)CC3)c(C(F)(F)F)c2)cc1C#Cc1cnc2cccnn12 [PONATINIB],IC50,CHP-212,> 512 nM
same,IC50,A204,12.2 nM
same,IC50,SCC-25,> 512 nM
same,IC50,CAKI-1,217 nM
same,IC50,VM-CUB-1,> 512 nM
same,IC50,BHT-101,> 512 nM
same,IC50,SW780,423 nM
same,IC50,RPMI-6666,> 512 nM
same,IC50,EFM-19,> 512 nM
same,IC50,TALL-1,> 512 nM
same,IC50,CPC-N,> 512 nM
same,IC50,NCI-H748,> 512 nM
same,IC50,NCI-H2030,312 nM
same,IC50,8505C,> 512 nM
same,IC50,NUGC-3,> 512 nM
same,IC50,JIYOYE,> 512 nM
same,IC50,SUP-T1,99.8 nM
same,IC50,LCLC-97TM1,462 nM
same,IC50,EFO-21,304 nM
same,IC50,MC-CAR,> 512 nM
same,IC50,S-117,> 512 nM
same,IC50,HuTu80,> 512 nM
same,IC50,KYSE-70 cell line,> 512 nM
same,IC50,NCI-H2342,186 nM
same,IC50,NCI-H2087,204 nM
same,IC50,HCT-116,211 nM
same,IC50,NCI-H292,> 512 nM
same,IC50,SW1990,> 512 nM
same,IC50,HuCCT-1,> 512 nM
same,IC50,DMS-273,> 512 nM
same,IC50,NCI-H1755,> 512 nM
same,IC50,NCI-H2196,> 512 nM
same,IC50,DoTc2-4510,> 512 nM
same,IC50,EFO-27,> 512 nM
same,IC50,HuO-3N1,> 512 nM
same,IC50,HSC-4,> 512 nM
same,IC50,GCT,> 512 nM
same,IC50,EW-24,> 512 nM
same,IC50,SNU-387,> 512 nM
same,IC50,G-402,63.4 nM
same,IC50,HT-29,> 512 nM
same,IC50,IM-9,> 512 nM
same,IC50,P31-FUJ,> 512 nM
same,IC50,UMC-11,> 512 nM
same,IC50,NALM-6,255 nM
same,IC50,D-392MG,232 nM
same,IC50,KYSE-410,> 512 nM
same,IC50,HMV-2 cell line,> 512 nM
same,IC50,MFE-280,315 nM
same,IC50,RD,> 512 nM
same,IC50,A-427,273 nM
same,IC50,NCI-H2405,> 512 nM
same,IC50,SW48,> 512 nM
same,IC50,COR-L105,> 512 nM
same,IC50,NCCIT,> 512 nM
same,IC50,T98G,193 nM
same,IC50,NCI-H2081,> 512 nM
CO[C@@H]1[C@H](N(C)C(=O)c2ccccc2)C[C@H]2O[C@]1(C)n1c3ccccc3c3c4c(c5c6ccccc6n2c5c31)C(=O)NC4 [MIDOSTAURIN],IC50,VM-CUB-1,> 512 nM
same,IC50,EFM-19,212 nM
same,IC50,LCLC-97TM1,> 512 nM
same,IC50,HuCCT-1,179 nM
same,IC50,DMS-273,324 nM
same,IC50,NCI-H1755,62.7 nM
same,IC50,HSC-4,> 512 nM
same,IC50,SNU-387,139 nM
same,IC50,IM-9,> 512 nM
same,IC50,UMC-11,> 512 nM
same,IC50,D-392MG,331 nM
same,IC50,HMV-2 cell line,> 512 nM
same,IC50,NCI-H2405,351 nM
same,IC50,SW48,267 nM
same,IC50,NCCIT,> 512 nM
